The source of these data is patent US12195482B1 (Arcus Biosciences, Inc., priority 2022, dated 2025).

The test concerns the target T1, p-AXL (Homo sapiens, UniProt P30530).
T1 construct: expressed in transfected cells; host or cells: HEK293T
T1 sequence (P30530 26-894): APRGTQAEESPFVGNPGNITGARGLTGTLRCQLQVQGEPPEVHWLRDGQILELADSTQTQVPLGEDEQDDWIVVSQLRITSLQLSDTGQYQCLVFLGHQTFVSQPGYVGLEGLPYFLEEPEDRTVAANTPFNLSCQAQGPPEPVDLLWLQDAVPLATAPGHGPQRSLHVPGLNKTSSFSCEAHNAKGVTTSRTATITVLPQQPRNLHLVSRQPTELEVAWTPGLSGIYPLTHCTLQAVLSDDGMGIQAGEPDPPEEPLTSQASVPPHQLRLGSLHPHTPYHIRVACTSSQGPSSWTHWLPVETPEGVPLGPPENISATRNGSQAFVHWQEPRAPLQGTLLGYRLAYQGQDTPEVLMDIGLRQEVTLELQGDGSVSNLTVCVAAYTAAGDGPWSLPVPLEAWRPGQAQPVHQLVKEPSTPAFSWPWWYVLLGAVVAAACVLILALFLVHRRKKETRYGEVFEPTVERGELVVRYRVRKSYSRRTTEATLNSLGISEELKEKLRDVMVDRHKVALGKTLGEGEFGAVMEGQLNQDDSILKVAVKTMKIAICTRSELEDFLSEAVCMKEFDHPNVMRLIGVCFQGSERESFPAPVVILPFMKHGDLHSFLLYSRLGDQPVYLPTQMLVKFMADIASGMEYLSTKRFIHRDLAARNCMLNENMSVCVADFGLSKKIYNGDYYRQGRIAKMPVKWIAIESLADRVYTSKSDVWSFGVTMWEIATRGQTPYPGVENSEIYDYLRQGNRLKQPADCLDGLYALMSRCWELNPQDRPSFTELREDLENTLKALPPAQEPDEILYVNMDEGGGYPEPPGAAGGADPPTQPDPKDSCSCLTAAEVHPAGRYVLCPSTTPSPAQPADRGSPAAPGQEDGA
The experiment in a line: Axl phosphorylation inhibition ELISA in HEK293T cells transfected with NanoLuc-tagged AXL. The test is classed as cell-based. The conditions noted are these: 1 h compound incubation, media (OptiMEM). A digest of the protocol: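 Phospho-AXL detected by luminescence of NanoLuc tag after capture of cell lysate on biotinylated anti-phospho-tyrosine mAb plates (2 h). Lysates came from transiently transfected HEK293T cells treated 1 h at 37° C with serial 2-fold dilutions (22 points). IC50 by standard 4-parameter logistic fitting.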

For orientation: IC50 means the concentration at which inhibition is half-maximal. Read a low IC50 as inhibition by little substance. `O=C(c1cccnc1-c1ccc(-c2n[nH]c3ncc(-c4ccc5c(c4)CC[C@@H](N4C6COCC4C6)CC5)cc23)cc1)N1CCCC1` [Example 4, 6-[(7S)-2-(3-{4-[3-(Pyrrolidine-1-carbonyl)pyridin-2-yl]phenyl}-1H-pyrazolo[3,4-b]pyridin-5-yl)-6,7,8,9-tetrahydro-5H-benzo[7]annulen-7-yl]-3-oxa-6-azabicyclo[3.1.1]heptane] came in with an IC50 of 100 to 1000 nM. `c1cnc(-c2ccc(-c3c[nH]c4ncc(-c5ccc6c(c5)CC[C@@H](N5C7COCC5C7)CC6)cc34)cc2)c(N2CCOCC2)c1` [Example 5, 6-[(7S)-2-(3-{4-[3-(Morpholin-4-yl)pyridin-2-yl]phenyl}-1H-pyrrolo[2,3-b]pyridin-5-yl)-6,7,8,9-tetrahydro-5H-benzo[7]annulen-7-yl]-3-oxa-6-azabicyclo[3.1.1]heptane] came in with an IC50 of less than 100 nM. The value for `CN(C)S(=O)(=O)c1cccnc1-c1ccc(-c2c[nH]c3ncc(-c4ccc5c(c4)CC[C@@H](N4C6COCC4C6)CC5)cc23)cc1` [Example 6, N,N-Dimethyl-2-(4-{5-[(7S)-7-{3-oxa-6-azabicyclo[3.1.1]heptan-6-yl}-6,7,8,9-tetrahydro-5H-benzo[7]annulen-2-yl]-1H-pyrrolo[2,3-b]pyridin-3-yl}phenyl)pyridine-3-sulfonamide] was less than 100 nM; that for `O=C1CCCN1c1cccnc1-c1ccc(-c2c[nH]c3ncc(-c4ccc5c(c4)CC[C@@H](N4C6COCC4C6)CC5)cc23)cc1` [Example 7, 1-[2-(4-{5-[(7S)-7-{3-Oxa-6-azabicyclo[3.1.1]heptan-6-yl}-6,7,8,9-tetrahydro-5H-benzo[7]annulen-2-yl]-1H-pyrrolo[2,3-b]pyridin-3-yl}phenyl)pyridin-3-yl]pyrrolidin-2-one] was less than 100 nM.

Molecule `CC(C)(O)c1cccnc1-c1ccc(-c2n[nH]c3ncc(-c4ccc5c(c4)CC[C@@H](N4C6COCC4C6)CC5)cc23)cc1` [Example 10, 2-[2-(4-{5-[(7S)-7-{3-Oxa-6-azabicyclo[3.1.1]heptan-6-yl}-6,7,8,9-tetrahydro-5H-benzo[7]annulen-2-yl]-1H-pyrazolo[3,4-b]pyridin-3-yl}phenyl)pyridin-3-yl]propan-2-ol] gave an IC50 of less than 100 nM.

In the case of `CN(C)C(=O)c1ccccc1-c1ccc(-c2n[nH]c3ncc(-c4ccc5c(c4)CC[C@@H](N4C6COCC4C6)CC5)cc23)cc1` [Example 12, N,N-Dimethyl-4′-{5-[(7S)-7-{3-oxa-6-azabicyclo[3.1.1]heptan-6-yl}-6,7,8,9-tetrahydro-5H-benzo[7]annulen-2-yl]-2H-pyrazolo[3,4-b]pyridin-3-yl}-[1,1′-biphenyl]-2-carboxamide], the IC50 was less than 100 nM. Under `Cn1nncc1-c1ccc(-c2n[nH]c3ncc(-c4ccc5c(c4)CC[C@@H](N4C6COCC4C6)CC5)cc23)cc1` [Example 13, 6-[(7S)-2-{3-[4-(1-Methyl-1H-1,2,3-triazol-5-yl)phenyl]-1H-pyrazolo[3,4-b]pyridin-5-yl}-6,7,8,9-tetrahydro-5H-benzo[7]annulen-7-yl]-3-oxa-6-azabicyclo[3.1.1]heptane] stands 100 to 1000 nM; under `Cc1nn(C)nc1-c1ccc(-c2n[nH]c3ncc(-c4ccc5c(c4)CC[C@@H](N4C6COCC4C6)CC5)cc23)cc1` [Example 14, 6-[(7S)-2-{3-[4-(2,5-Dimethyl-2H-1,2,3-triazol-4-yl)phenyl]-1H-pyrazolo[3,4-b]pyridin-5-yl}-6,7,8,9-tetrahydro-5H-benzo[7]annulen-7-yl]-3-oxa-6-azabicyclo[3.1.1]heptane], less than 100 nM. Turning to `CC(C)(C#N)c1cccnc1-c1ccc(-c2c[nH]c3ncc(-c4ccc5c(c4)CC[C@@H](N4C6COCC4C6)CC5)cc23)cc1` [Example 21, 2-Methyl-2-[2-[4-[5-[(7S)-7-(3-oxa-6-azabicyclo[3.1.1]heptan-6-yl)-6,7,8,9-tetrahydro-5H-benzo[7]annulen-3-yl]-1H-pyrrolo[2,3-b]pyridin-3-yl]phenyl]pyridin-3-yl]propanenitrile], the IC50 is less than 100 nM. Under `OC1(c2cccnc2-c2ccc(-c3c[nH]c4ncc(-c5ccc6c(c5)CC[C@@H](N5C7COCC5C7)CC6)cc34)cc2)CCC1` [Example 22, 1-[2-[4-[5-[(7S)-7-(3-Oxa-6-azabicyclo[3.1.1]heptan-6-yl)-6,7,8,9-tetrahydro-5H-benzo[7]annulen-3-yl]-1H-pyrrolo[2,3-b]pyridin-3-yl]phenyl]pyridin-3-yl]cyclobutan-1-ol] stands less than 100 nM; under `Cc1nc(-c2ccc(-c3n[nH]c4ncc(-c5ccc6c(c5)CC[C@@H](N5C7COCC5C7)CC6)cc34)cc2)n(C)n1` [Example 23, 6-[(7S)-2-{3-[4-(1,3-Dimethyl-1H-1,2,4-triazol-5-yl)phenyl]-1H-pyrazolo[3,4-b]pyridin-5-yl}-6,7,8,9-tetrahydro-5H-benzo[7]annulen-7-yl]-3-oxa-6-azabicyclo[3.1.1]heptane], less than 100 nM; under `Cc1cccnc1-c1ccc(-c2n[nH]c3ncc(-c4ccc5c(c4)CC[C@@H](N4C6COCC4C6)CC5)cc23)nc1` [Example 26, 3-Methyl-6′-{5-[(7S)-7-{3-oxa-6-azabicyclo[3.1.1]heptan-6-yl}-6,7,8,9-tetrahydro-5H-benzo[7]annulen-2-yl]-1H-pyrazolo[3,4-b]pyridin-3-yl}-2,3′-bipyridine], less than 100 nM.

For the molecule `Cc1cc(F)cnc1-c1ccc(-c2n[nH]c3ncc(-c4ccc5c(c4)CC[C@@H](N4C6COCC4C6)CC5)cc23)cc1` [Example 28, 6-[(7S)-3-[3-[4-(5-Fluoro-3-methylpyridin-2-yl)phenyl]-1H-pyrazolo[3,4-b]pyridin-5-yl]-6,7,8,9-tetrahydro-5H-benzo[7]annulen-7-yl]-3-oxa-6-azabicyclo[3.1.1]heptane], the IC50 was in the range of 100 to 1000 nM. Under `Cc1cc(F)cnc1-c1ccc(-c2c[nH]c3ncc(-c4ccc5c(c4)CC[C@@H](N4C6COCC4C6)CC5)cc23)cc1` [Example 29, 6-[(7S)-3-[3-[4-(5-Fluoro-3-methylpyridin-2-yl)phenyl]-1H-pyrrolo[2,3-b]pyridin-5-yl]-6,7,8,9-tetrahydro-5H-benzo[7]annulen-7-yl]-3-oxa-6-azabicyclo[3.1.1]heptane] stands 100 to 1000 nM. The value for `Cc1cc(-c2ncccc2C)ccc1-c1n[nH]c2ncc(-c3ccc4c(c3)CC[C@@H](N3C5COCC3C5)CC4)cc12` [Example 30, 6-[(7S)-3-[3-[2-Methyl-4-(3-methylpyridin-2-yl)phenyl]-1H-pyrazolo[3,4-b]pyridin-5-yl]-6,7,8,9-tetrahydro-5H-benzo[7]annulen-7-yl]-3-oxa-6-azabicyclo[3.1.1]heptane] was 100 to 1000 nM.

`O=c1ccccn1-c1ccc(-c2n[nH]c3ncc(-c4ccc5c(c4)CC[C@@H](N4C6COCC4C6)CC5)cc23)cc1` [Example 31, 1-[4-[5-[(7S)-7-(3-Oxa-6-azabicyclo[3.1.1]heptan-6-yl)-6,7,8,9-tetrahydro-5H-benzo[7]annulen-3-yl]-1H-pyrazolo[3,4-b]pyridin-3-yl]phenyl]pyridin-2-one]: the IC50 lay within 100 to 1000 nM.

In the case of `c1ccc(-c2ccc(-c3c[nH]c4ncc(-c5ccc6c(c5)CC[C@@H](N[C@H]5CCCOC5)CC6)cc34)cc2)nc1` [Example 32, (3S)—N-[(7S)-3-[3-(4-Pyridin-2-ylphenyl)-1H-pyrrolo[2,3-b]pyridin-5-yl]-6,7,8,9-tetrahydro-5H-benzo[7]annulen-7-yl]oxan-3-amine], the IC50 was 100 to 1000 nM. In turn, `CN(C)C(=O)c1cccc(-c2ccc(-c3n[nH]c4ncc(-c5ccc6c(c5)CC[C@@H](N5C7COCC5C7)CC6)cc34)cc2)n1` [Example 94, N,N-Dimethyl-6-(4-{5-[(7S)-7-{3-oxa-6-azabicyclo[3.1.1]heptan-6-yl}-6,7,8,9-tetrahydro-5H-benzo[7]annulen-2-yl]-2H-pyrazolo[3,4-b]pyridin-3-yl}phenyl)pyridine-2-carboxamide] registered an IC50 of 100 to 1000 nM.

On to `CC(C)(O)c1cccnc1-c1ccc(-c2c[nH]c3ncc(-c4ccc5c(c4)CC[C@@H](N4C6COCC4C6)CC5)cc23)cc1` [Example 95, 2-[2-(4-{5-[(7S)-7-{3-Oxa-6-azabicyclo[3.1.1]heptan-6-yl}-6,7,8,9-tetrahydro-5H-benzo[7]annulen-2-yl]-1H-pyrrolo[2,3-b]pyridin-3-yl}phenyl)pyridin-3-yl]propan-2-ol], for which the IC50 is less than 100 nM. Molecule `Cc1cccnc1-c1ccc(-c2c[nH]c3ncc(-c4ccc5c(c4)CC[C@@H](N4C6COCC4C6)CC5)cc23)nc1` [Example 96, 3-Methyl-6′-{5-[(7S)-7-{3-oxa-6-azabicyclo[3.1.1]heptan-6-yl}-6,7,8,9-tetrahydro-5H-benzo[7]annulen-2-yl]-1H-pyrrolo[2,3-b]pyridin-3-yl}-2,3′-bipyridine] showed an IC50 of less than 100 nM.
